Data from article PMC10343279, “The Cytotoxic Activity of Dammarane-Type Triterpenoids Isolated from the Stem Bark of Aglaia cucullata (Meliaceae)” (Molecules, 2023).
Where two headings read alike, the source gives them in different places.

Assays:
Type in all cases: cell-based
[1] = system: MCF-7 breast cancer cell line; assay: PrestoBlue cytotoxicity assay against MCF-7 breast cancer cells; details: MCF-7, PrestoBlue, 24 h incubation, run twice and averaged
Procedure: (§1) A normal cell (CV-1 kidney fibroblast cells) and two cancer cell lines (MCF-7 breast cancer and B16-F10 melanoma cells) were used to test the cytotoxic activities of compounds 1–7. In this experiment, two wavelengths (570 and 600 nm) were used because the measured cells were live cells so, to obtain the value/number of live cells, measurements were carried out at two wavelengths, namely before the reaction (blue) and after the reaction (pink) to produce a corrected absorbance value, which was interpreted as the number live cells after treatment. The results arising from the experiments, along with IC50 calculation graphs and cell morphology at each sample concentration, are presented in Figures S38–S58.
(§2) The PrestoBlue assay was utilized to conduct the cytotoxic bioassay. Additionally, Presto Blue reagent from Thermo Fisher Scientific, Uppsala, Sweden, was used to measure cell viability, which allowed for rapid evaluation of various resazurin-based cells. The rate of proliferation of the samples was then determined quantitatively through live-cell reduction capabilities. According to the findings, healthy cells kept a reduced habitat in their cytoplasm. By reducing resorufin (purple) with absorbance or fluorescence outputs, resazurin reduction (blue) acted as a viability indicator. The conversion correlated with the number of cells that were metabolically active. MCF-7, B16-F10, and CV-1 cell lines were cultured until they reached 70% confluence, and then they were removed, counted with a hemocytometer, and diluted with complete culture RPMI media. A total of 170,000 cells per well in 96-well plates with the samples were used. After an overnight growth period, the samples were treated with compounds 1–7 at escalating concentrations ([…]) in PBS, with 2% DMSO as the co-solvent. Additionally, cisplatin served as the positive control, and all samples were incubated for 24 h at 37° C with 5% CO2. Following incubation, the medium was immediately changed to 10 μL of the PrestoBlue reagent in 90 μL of the RPMI medium. As resorufin began to form, the color of the plates changed from blue to purple after being incubated for another one to two hours. Using a microplate reader to measure absorbance at 570 nm and 600 nm, the concentration required to inhibit growth by 50% was calculated as the IC50 value. […] The results of each test and analysis were averaged after being run twice.

[2] = system: B16-F10 melanoma cell line; assay: PrestoBlue cytotoxicity assay against B16-F10 melanoma cells; details: 24 h incubation, run twice and averaged
Procedure: as §1, §2

[3] = system: CV-1 normal kidney fibroblast cell line; assay: cells
Procedure: as §1, §2

[4] = Homo sapiens, MCF7, read-out: IC50 for MCF-7
[5] = Homo sapiens, MCF7, read-out: IC50 for MCF-7 (μg/mL)
[6] = Mus musculus, read-out: IC50 for B16-F10
[7] = Mus musculus, read-out: IC50 for B16-F10 (μg/mL)
[8] = Fibroblast, CV-1 normal cells, PrestoBlue, 24 h incubation, run twice and averaged, read-out: IC50 for CV-1
[9] = Fibroblast, CV-1 normal cells, PrestoBlue, 24 h incubation, run twice and averaged, read-out: IC50 for CV-1 (μg/mL)

Row | SMILES | IC50 for MCF-7 [1] | IC50 ([1]; read-out: IC50 for MCF-7) | IC50 for B16-F10 [2] | IC50 ([2]; read-out: IC50 for B16-F10) | IC50 for CV-1 ([3]; CV-1 normal cells, PrestoBlue, 24 h incubation, run twice and averaged) | IC50 ([3]; CV-1 normal cells, PrestoBlue, 24 h incubation, run twice and averaged, read-out: IC50 for CV-1) | IC50 [1, 4] | IC50 [1, 5] | IC50 [2, 6] | IC50 [2, 7] | IC50 [3, 8] | IC50 [3, 9] | cell death based on morphological observation [3]
1 | N.N.[Cl][Pt][Cl] [Cisplatin, cisplatin, reference compound] | 53.00 µg/mL | 176 µM | 43.00 µg/mL | 143 µM | 43.00 µg/mL | 143 µM | – | – | – | – | – | – | –
2 | CC(C)(O)[C@@H]1CC[C@@](C)(C2CC[C@]3(C)C2CCC2[C@@]4(C)CC[C@@H](O)C(C)(C)C4CC[C@]23C)O1 (stereo partly drawn) [Compound 1, 20S,24S-epoxy-3α,25-dihydroxy-dammarane] | – | – | – | – | – | – | 142 µM | 65.5 µg/mL | 97.3 µM | 44.8 µg/mL | 174 µM | 80.1 µg/mL | –
3 | C=C(CCC=C(C)C)C1CC[C@]2(C)C1CC[C@@H]1[C@@]3(C)CCC(=O)C(C)(C)C3CC[C@]12C (stereo partly drawn) [Compound 2, dammaradienone] | – | – | – | – | – | – | 132 µM | 56.1 µg/mL | 129 µM | 54.8 µg/mL | 195 µM | 82.8 µg/mL | –
4 | CC(C)=CCC[C@](C)(O)C1CC[C@]2(C)C1CC[C@@H]1[C@@]3(C)CCC(=O)C(C)(C)C3CC[C@]12C (stereo partly drawn) [Compound 3, 20S-hydroxy-dammar-24-en-3-on] | – | – | – | – | – | – | > 300 µM | 142 µg/mL | 111 µM | 49.1 µg/mL | > 300 µM | > 300 µg/mL | no cell death at all concentration levels
5 | C=C(C)[C@@H]1CC[C@]2(C)[C@H](CC[C@@H]3[C@@H]([C@]4(C)CC[C@@H](C(C)(C)O)O4)CC[C@]32C)[C@@]1(C)CCC(=O)O [Compound 4, eichlerianic acid] | – | – | – | – | – | – | > 300 µM | > 300 µg/mL | > 300 µM | 275 µg/mL | 288 µM | 137 µg/mL | –
6 | COC1CC[C@@](C)(C2CC[C@]3(C)C2CCC2[C@@]4(C)CCC(=O)C(C)(C)C4CC[C@]23C)O1 (stereo partly drawn) [Compound 5, (20S,24RS)-23,24-epoxy-24-methoxy-25,26,27-tris-nor dammar-3-one] | – | – | – | – | – | – | 133 µM | 57.3 µg/mL | 105 µM | 45.4 µg/mL | > 300 µM | > 300 µg/mL | no cell death at all concentration levels
7 | CC(=O)O[C@@H]1CC[C@@]2(C)C(CC[C@]3(C)C2CCC2C([C@]4(C)CCC(=O)O4)CC[C@]23C)C1(C)C (stereo partly drawn) [Compound 6, 3α-acetyl-cabraleahydroxy lactone] | – | – | – | – | – | – | 274 µM | 126 µg/mL | 274 µM | 126 µg/mL | 285 µM | 131 µg/mL | –
8 | CC(=O)O[C@@H]1CC[C@@]2(C)C(CC[C@]3(C)C2CCC2C([C@]4(C)CC[C@@H](C(C)(C)O)O4)CC[C@]23C)C1(C)C (stereo partly drawn) [Compound 7, 3α-acetyl-20S,24S-epoxy-3α,25-dihydroxydammarane] | – | – | – | – | – | – | 195 µM | 97.9 µg/mL | 158 µM | 79.4 µg/mL | > 300 µM | > 300 µg/mL | no cell death at all concentration levels
